From US8541588B2, “Sulfonamide derivatives” (Pfizer Limited, priority 2009, dated 2013)

Each molecule was assayed against T1, Nav1.7 (or SCN9A) channel; HEK cells stably transfected with hSCN9A (Homo sapiens, UniProt Q15858) (assay: Nav1.7 block, PatchXpress 7000 automated whole-cell voltage clamp, estimated IC50 (EIC50)). Details: PatchXpress platform; hSCN9A HEK cells held at V1/2 of inactivation; estimated IC50.
T1 construct: expressed in transfected cells
Format: cell-based

T1 sequence (Q15858 whole entry): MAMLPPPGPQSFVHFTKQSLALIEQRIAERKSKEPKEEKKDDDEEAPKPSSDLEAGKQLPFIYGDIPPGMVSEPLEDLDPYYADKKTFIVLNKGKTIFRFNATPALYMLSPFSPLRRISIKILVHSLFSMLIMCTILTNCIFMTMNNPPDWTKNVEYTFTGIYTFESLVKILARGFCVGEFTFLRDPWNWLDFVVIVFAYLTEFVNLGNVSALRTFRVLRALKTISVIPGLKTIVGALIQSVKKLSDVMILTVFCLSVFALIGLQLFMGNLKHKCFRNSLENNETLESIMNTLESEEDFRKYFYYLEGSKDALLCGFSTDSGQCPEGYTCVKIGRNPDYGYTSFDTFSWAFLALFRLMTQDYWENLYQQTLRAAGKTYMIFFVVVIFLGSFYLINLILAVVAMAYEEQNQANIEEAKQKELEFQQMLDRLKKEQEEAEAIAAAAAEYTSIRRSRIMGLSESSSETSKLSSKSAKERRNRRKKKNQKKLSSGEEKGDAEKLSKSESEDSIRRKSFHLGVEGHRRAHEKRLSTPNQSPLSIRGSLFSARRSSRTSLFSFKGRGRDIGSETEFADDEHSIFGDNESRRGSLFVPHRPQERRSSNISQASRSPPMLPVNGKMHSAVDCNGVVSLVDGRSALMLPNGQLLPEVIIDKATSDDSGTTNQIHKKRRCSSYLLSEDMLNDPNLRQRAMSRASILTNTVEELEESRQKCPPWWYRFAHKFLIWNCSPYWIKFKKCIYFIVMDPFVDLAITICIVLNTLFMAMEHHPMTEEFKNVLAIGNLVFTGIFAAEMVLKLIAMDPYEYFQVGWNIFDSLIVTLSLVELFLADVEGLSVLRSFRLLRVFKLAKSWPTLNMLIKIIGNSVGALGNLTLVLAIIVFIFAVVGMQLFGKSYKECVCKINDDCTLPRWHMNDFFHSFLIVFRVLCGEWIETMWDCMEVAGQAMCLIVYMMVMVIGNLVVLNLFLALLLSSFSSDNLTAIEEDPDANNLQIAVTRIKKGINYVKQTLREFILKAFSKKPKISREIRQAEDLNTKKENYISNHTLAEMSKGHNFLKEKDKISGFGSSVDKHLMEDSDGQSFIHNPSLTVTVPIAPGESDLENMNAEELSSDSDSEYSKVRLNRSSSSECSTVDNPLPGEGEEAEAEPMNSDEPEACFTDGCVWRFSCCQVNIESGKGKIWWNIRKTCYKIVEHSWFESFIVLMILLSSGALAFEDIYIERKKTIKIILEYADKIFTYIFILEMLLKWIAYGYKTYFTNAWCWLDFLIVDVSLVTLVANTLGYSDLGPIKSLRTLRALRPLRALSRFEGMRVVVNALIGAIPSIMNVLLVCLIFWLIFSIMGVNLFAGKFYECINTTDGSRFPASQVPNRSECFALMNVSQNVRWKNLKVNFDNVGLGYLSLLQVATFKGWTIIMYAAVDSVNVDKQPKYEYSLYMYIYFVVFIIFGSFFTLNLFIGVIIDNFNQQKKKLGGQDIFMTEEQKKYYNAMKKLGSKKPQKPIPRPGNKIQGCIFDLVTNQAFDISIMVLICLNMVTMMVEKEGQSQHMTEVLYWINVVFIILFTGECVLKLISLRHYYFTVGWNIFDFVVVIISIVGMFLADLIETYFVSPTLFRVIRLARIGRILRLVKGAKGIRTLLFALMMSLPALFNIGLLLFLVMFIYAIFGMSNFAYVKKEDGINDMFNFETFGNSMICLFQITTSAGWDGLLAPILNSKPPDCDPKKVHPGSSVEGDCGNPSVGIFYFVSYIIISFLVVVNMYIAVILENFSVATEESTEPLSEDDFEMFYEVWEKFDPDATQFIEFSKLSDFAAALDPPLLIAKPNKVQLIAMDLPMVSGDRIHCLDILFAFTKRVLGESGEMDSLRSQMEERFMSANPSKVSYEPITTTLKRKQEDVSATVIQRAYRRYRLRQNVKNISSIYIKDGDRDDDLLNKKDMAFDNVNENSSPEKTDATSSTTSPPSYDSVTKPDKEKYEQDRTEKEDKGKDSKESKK

| Molecule | IC50 [nM] |
| --- | --- |
| COCc1cccc(-c2cc(F)ccc2Oc2ccc(S(=O)(=O)Nc3nccs3)cc2C#N)c1 [Example 160, 3-cyano-4-{[5-fluoro-3′-(methoxymethyl)biphenyl-2-yl]oxy}-N-1,3-thiazol-2-ylbenzenesulfonamide] | 60 |
| N#Cc1cc(S(=O)(=O)Nc2ncns2)ccc1Oc1ccccc1-c1cc(F)ccc1F [Example 36, 3-cyano-4-[(2′,5′-difluorobiphenyl-2-yl)oxy]-N-1,2,4-thiadiazol-5-ylbenzenesulfonamide] | 1290 |

Same assay, conditions: estimated IC50; hSCN9A HEK cells, PatchXpress platform; Examples 283-814

| Molecule | IC50 [nM] |
| --- | --- |
| N#Cc1cc(S(=O)(=O)Nc2nccs2)ccc1Oc1ccc(-n2cc(F)cn2)cc1 [Example 774, 3-cyano-4-[4-(4-fluoro-1H-pyrazol-1-yl)phenoxy]-N-1,3-thiazol-2-ylbenzenesulfonamide] | >1000 |
| 4-[2-fluoro-4-(3-methoxy-1-methyl-1H-pyrazol-5-yl)phenoxy]-N-1,3-thiazol-2-ylbenzenesulfonamide [Example 435] | 2700 |
| N#Cc1cc(S(=O)(=O)Nc2ncc(F)s2)ccc1Oc1ccc(Cl)c(Cn2ccnn2)c1 [Example 533, 4-[4-chloro-3-(1H-1,2,3-triazol-1-ylmethyl)phenoxy]-3-cyano-N-(5-fluoro-1,3-thiazol-2-yl)benzenesulfonamide] | 780 |
| O=S(=O)(Nc1nncs1)c1ccc(Oc2ccc(Cl)cc2-c2ccn[nH]2)c(Cl)c1 [Example 747, 3-chloro-4-[4-chloro-2-(1H-pyrazol-5-yl)phenoxy]-N-1,3,4-adiazol-2-ylbenzenesulfonamide] | 50 |
| Nc1cccc(-c2cc(C(F)(F)F)ccc2Oc2cc(F)c(S(=O)(=O)Nc3ncns3)cc2F)n1 [Example 555, 4-[2-(6-aminopyridin-2-yl)-4-(trifluoromethyl)phenoxy]-2,5-difluoro-N-1,2,4-thiadiazol-5-ylbenzenesulfonamide] | 14 |
| Cn1nccc1-c1cc(F)ccc1Oc1cc(F)c(S(=O)(=O)Nc2nncs2)cc1Cl [Example 298, 5-chloro-2-fluoro-4-[4-fluoro-2-(1-methyl-1H-pyrazol-5-yl)phenoxy]-N-1,3,4-thiadiazol-2-ylbenzenesulfonamide] | 140 |
| N#Cc1cc(S(=O)(=O)Nc2nccs2)ccc1Oc1ccc(-c2cc(C(F)(F)F)nn2CCO)cc1 [Example 382, 3-cyano-4-{4-[1-(2-hydroxyethyl)-3-(trifluoromethyl)-1H-pyrazol-5-yl]phenoxy}-N-1,3-thiazol-2-ylbenzenesulfonamide] | 50 |
